Like-named read-outs stand apart in the source and are kept apart here.
Target: T1, Akt1 (Homo sapiens, UniProt P31749, S473D)
T1 construct: The version of Akt used in these studies lacks the pleckstrin homology (PH) domain
Assay: Akt1 kinase assay, fluorescence polarization (IMAP)
Assay type: biochemical
Description: The Akt1 kinase assay is based on the measurement of fluorescence polarization using IMAP technology (Molecular Devices Corporation #R8062). Two microliters of inhibitor compounds diluted to a concentration of 10 millimolar are added to column 2 of a polypropylene 96-well plate containing 98 microliters of 100% DMSO; the wells in columns 3-12 contain 60 microliters of 100% DMSO. The various test compounds are serially diluted 1:3 across the plate by pipetting 30 microliters of compounds into wells containing 60 microliters of 100% DMSO. Column 12 receives DMSO only and is used as a negative control for inhibition. The components of the wells are mixed and 15 microliters of each well are transferred to another 96-well plate already containing 60 microliters of reaction buffer (RB: 10 mM Tris-HCl, pH 7.5, 10 mM MgCl2, 0.1 mM EGTA, 0.01% Triton-X100 (Sigma #X-100), freshly added 1 mM DTT). After mixing, the […] reactions are assembled. First, five microliters of the above compound/reaction buffer mixture is transferred to the bottom of a 96-well black polystyrene reaction plate (Costar, #3694). Next, ten microliters of a solution containing 4 micromolar ATP and 40 nanomolar fluorescent-labeled Crosstide (Tamara-labeled […] peptide) are added. Then, 5 microliters (1.5 nanograms) of Akt protein in RB are added. The version of Akt used in these studies lacks the pleckstrin homology (PH) domain, and contains an aspartic acid residue in place of a serine residue in position 473 within the Akt1 hydrophobic motif. The Akt1 protein contains a polyhistidine tag at the amino terminus and is prephosphorylated on threonine at position 308 in order to activate latent kinase activity. Once the reaction components and inhibitors are assembled, the plates are gently tapped, covered with foil, and then incubated at ambient temperature for 30 minutes. IMAP beads (Molecular Devices) are then added (60 microliters of a 1:400 dilution of beads in RB). Plates are read on a Victor Plate Reader with the following settings: CW lamp filter: 544 nm, emission filter: 615 nm. Control values from wells lacking Akt protein are subtracted from the gross readings, and IC50 values are calculated using XLDA.

[1] = Table 3, read-out: Avg Akt kinase, μM (50% inhibition)
[2] = Table 1, concentration bins, read-out: Concentration Range at which exemplary compounds of formula I inhibit Akt kinase activity

T1 sequence (P31749 118-480 S473D limits assumed, species assumed): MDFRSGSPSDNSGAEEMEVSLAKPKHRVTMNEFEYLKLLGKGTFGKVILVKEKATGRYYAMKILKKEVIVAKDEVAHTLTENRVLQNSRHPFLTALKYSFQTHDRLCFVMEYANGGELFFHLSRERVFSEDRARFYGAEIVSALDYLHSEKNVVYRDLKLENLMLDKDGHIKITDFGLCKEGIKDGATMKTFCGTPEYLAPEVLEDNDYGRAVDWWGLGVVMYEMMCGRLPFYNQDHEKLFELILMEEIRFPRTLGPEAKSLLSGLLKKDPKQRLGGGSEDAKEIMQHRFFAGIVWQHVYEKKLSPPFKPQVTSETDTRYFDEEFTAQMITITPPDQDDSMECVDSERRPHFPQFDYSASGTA

IC50 [1] [µM] | IC50 [2] [µM] | Compound
0.331 | – | 3-{[(4-chlorophenyl)amino]methyl}-1-(1H-pyrrolo[2,3-b]pyridin-4-yl)pyrrolidin-3-amine [Example 17]
0.0154 | 0.0101 to 0.1 | CCc1c[nH]c2ncnc(N3CC[C@](N)(CNc4cc(C)on4)C3)c12 [Example 1, N—(((S)-3-amino-1-(5-ethyl-7H-pyrrolo[2,3-d]pyrimidin-4-yl)pyrrolidin-3-yl)methyl)-5-methylisoxazol-3-amine]
0.041 | 0.0101 to 0.1 | N#Cc1c[nH]c2ncnc(N3CCC(N)(CNc4ccc(Cl)cc4)C3)c12 (stereo not shown) [Example 4, 4-{3-amino-3-[(4-chloro-phenylamino)-methyl]-pyrrolidin-1-yl}-7H-pyrrolo[2,3-d]pyrimidine-5-carbonitrile]
0.0523 | 0.0101 to 0.1 | N#Cc1n[nH]c2ncnc(N3CCC(N)(CNc4cccc(Cl)c4F)C3)c12 (stereo not shown) [Example 7, 4-(3-amino-3-((3-chloro-2-fluorophenylamino)methyl)pyrrolidin-1-yl)-1H-pyrazolo[3,4-d]pyrimidine-3-carbonitrile]
0.002 | 0.00025 to 0.0025 | CCc1c[nH]c2ncnc(N3CCC(N)(CNc4cccc(C(F)(F)F)c4)C3)c12 (stereo not shown) [Example 9]
– | 0.00251 to 0.01 | N#Cc1c[nH]c2nccc(N3CCC(N)(CNc4ccccc4Oc4ccccc4)C3)c12 (stereo not shown) [Example 11, 4-(3-amino-3-{[(2-phenoxyphenyl)amino]methyl}pyrrolidin-1-yl)-1H-pyrrolo[2,3-b]pyridine-3-carbonitrile]
0.00226 | 0.00025 to 0.0025 | Cc1c[nH]c2ncnc(N3CC[C@](N)(CNc4cccc(C(F)(F)F)c4)C3)c12 [Example 13, (3S)-1-(5-methyl-7H-pyrrolo[2,3-d]pyrimidin-4-yl)-3-({[3-(trifluoromethyl)phenyl]amino}-methyl)pyrrolidin-3-amine]
0.0143 | 0.0101 to 0.1 | Cc1c[nH]c2ncnc(N3CCC(N)(CNc4ccc(CC(N)=O)cc4)C3)c12 (stereo not shown) [Example 16, 2-[4-({[3-amino-1-(5-methyl-7H-pyrrolo[2,3-d]pyrimidin-4-yl)pyrrolidin-3-yl]methyl}amino)phenyl]-acetamide]
0.0155 | 0.0101 to 0.1 | Cc1c[nH]c2ncnc(N3CCC(N)(CNc4ccccc4Oc4ccccc4)C3)c12 (stereo not shown) [Example 20, 1-(5-methyl-7H-pyrrolo[2,3-d]pyrimidin-4-yl)-3-{[(2-phenoxyphenyl)amino]methyl}-pyrrolidin-3-amine]
0.002 | 0.00025 to 0.0025 | Cc1c[nH]c2ncnc(N3CCC(N)(CNc4cccc(Cl)c4Cl)C3)c12 (stereo not shown) [Example 26, 3-{[(2,3-dichlorophenyl)amino]methyl}-1-(5-methyl-7H-pyrrolo[2,3-d]pyrimidin-4-yl)pyrrolidin-3-amine]
0.0135 | 0.0101 to 0.1 | COc1cc(NCC2(N)CCN(c3ncnc4[nH]cc(C)c34)C2)cc(C(F)(F)F)c1 (stereo not shown) [Example 30, 3-({[3-methoxy-5-(trifluoromethyl)phenyl]amino}-methyl)-1-(5-methyl-7H-pyrrolo[2,3-d]pyrimidin-4-yl)pyrrolidin-3-amine]
0.00514 | 0.00251 to 0.01 | Cc1c[nH]c2ncnc(N3CCC(N)(CNc4ccc(Cl)cc4F)C3)c12 (stereo not shown) [Example 31, 3-{[(4-chloro-2-fluorophenyl)amino]methyl}-1-(5-methyl-7H-pyrrolo[2,3-d]pyrimidin-4-yl)pyrrolidin-3-amine]

Further lines, the compound ahead of its results:

Compound | IC50 [1] [µM] | IC50 [2] [µM]
Cc1c[nH]c2ncnc(N3CCC(N)(CNc4cccc(C(F)(F)F)c4F)C3)c12 (stereo not shown) [Example 3] | 0.0012 | 0.00025 to 0.0025
COC(=O)c1ccccc1NCC1(N)CCN(c2ncnc3[nH]nc(C)c23)C1 (stereo not shown) [Example 5, 2-{[3-Amino-1-(3-methyl-1H-pyrazolo[3,4-d]pyrimidin-4-yl)-pyrrolidin-3-ylmethyl]-amino}-benzoic acid methyl ester] | 0.394 | 0.101 to 10
NC1(CNc2cccc(Oc3ccccc3)c2)CCN(c2ncnc3[nH]cc(Cl)c23)C1 (stereo not shown) [Example 6, 1-(5-Chloro-7H-pyrrolo[2,3-d]pyrimidin-4-yl)-3-[(3-phenoxy-phenylamino)-methyl]-pyrrolidin-3-ylamine] | 0.0134 | 0.0101 to 0.1
N#Cc1n[nH]c2ncnc(N3CCC(N)(CNc4cccc(Cl)c4)C3)c12 (stereo not shown) [Example 8, 4-{3-Amino-3-[(3-chloro-phenylamino)-methyl]-pyrrolidin-1-yl}-1H-pyrazolo[3,4-d]pyrimidine-3-carbonitrile] | 0.249 | 0.101 to 10
Cc1ccn2ncnc(N3CCC(N)(CNc4cccc(Cl)c4Cl)C3)c12 (stereo not shown) [Example 10, 3-{[(2,3-dichlorophenyl)amino]methyl}-1-(5-methylpyrrolo[2,1-f][1,2,4]triazin-4-yl)pyrrolidin-3-amine] | 0.003 | 0.00251 to 0.01
Cc1c[nH]c2ncnc(N3CCC(N)(CNc4ccc(S(=O)(=O)NCc5ccccc5)cc4)C3)c12 (stereo not shown) [Example 12, 4-({[3-amino-1-(5-methyl-7H-pyrrolo[2,3-d]pyrimidin-4-yl)pyrrolidin-3-yl]methyl}amino)-N-benzylbenzenesulfonamide] | 0.0105 | 0.0101 to 0.1
NC1(CNc2cccc(C(F)(F)F)c2)CCN(c2ncnc3[nH]cnc23)C1 (stereo not shown) [Example 14, 1-(9H-purin-6-yl)-3-({[3-(trifluoromethyl)phenyl]amino}-methyl)pyrrolidin-3-amine] | 0.108 | 0.101 to 10
Cc1c[nH]c2ncnc(N3CCC(N)(CNc4ccccc4S(=O)(=O)N4CC[C@@H](F)C4)C3)c12 (stereo partly drawn) [Example 15, 3-{[(2-{[(3R)-3-fluoropyrrolidin-1-yl]sulfonyl}phenyl)amino]methyl}-1-(5-methyl-7H-pyrrolo[2,3-d]pyrimidin-4-yl)pyrrolidin-3-amine] | 0.0154 | 0.0101 to 0.1
Cc1c[nH]c2ncnc(N3CC[C@](N)(CNc4ccc(Cl)cc4)C3)c12 [Example 18, (3S)-3-{[(4-chlorophenyl)amino]methyl}-1-(5-methyl-7H-pyrrolo[2,3-d]pyrimidin-4-yl)pyrrolidin-3-amine] | 0.002 | 0.00025 to 0.0025
COC(=O)c1ccccc1NCC1(N)CCN(c2ncnc3[nH]cc(C)c23)C1 (stereo not shown) [Example 19] | 0.01 | 0.00251 to 0.01
Cc1c[nH]c2ncnc(N3CCC(N)(CNc4cccc(Cl)c4F)C3)c12 (stereo not shown) [Example 21, 3-{[(3-chloro-2-fluorophenyl)amino]methyl}-1-(5-methyl-7H-pyrrolo[2,3-d]pyrimidin-4-yl)pyrrolidin-3-amine] | 0.00553 | 0.00251 to 0.01
Cc1c[nH]c2ncnc(N3CCC(N)(CNc4ccc(C#N)c(Cl)c4)C3)c12 (stereo not shown) [Example 22, 4-({[3-amino-1-(5-methyl-7H-pyrrolo[2,3-d]pyrimidin-4-yl)pyrrolidin-3-yl]methyl}amino)-2-chlorobenzonitrile] | 0.0161 | 0.0101 to 0.1
Cc1c[nH]c2ncnc(N3CCC(N)(CNc4cccc(C(F)(F)F)c4)C3)c12 (stereo not shown) [Example 23, 1-(5-methyl-7H-pyrrolo[2,3-d]pyrimidin-4-yl)-3-({[3-(trifluoromethyl)phenyl]amino}-methyl)pyrrolidin-3-amine] | 0.00669 | 0.00251 to 0.01
Cc1c[nH]c2ncnc(N3CCC(N)(CNc4ccccc4N4CCCCC4)C3)c12 (stereo not shown) [Example 24, 1-(5-methyl-7H-pyrrolo[2,3-d]pyrimidin-4-yl)-3-{[(2-piperidin-1-ylphenyl)amino]methyl}pyrrolidin-3-amine] | 0.0108 | 0.0101 to 0.1
Cc1c[nH]c2ncnc(N3CCC(N)(CNc4cccc(OC(F)(F)F)c4)C3)c12 (stereo not shown) [Example 25, 1-(5-methyl-7H-pyrrolo[2,3-d]pyrimidin-4-yl)-3-({[3-(trifluoromethoxy)phenyl]amino}methyl)pyrrolidin-3-amine] | 0.0145 | 0.0101 to 0.1
Cc1c[nH]c2ncnc(N3CCC(N)(CNc4ccccc4C(=O)NCc4ccccc4)C3)c12 (stereo not shown) [Example 27, 2-({[3-amino-1-(5-methyl-7H-pyrrolo[2,3-d]pyrimidin-4-yl)pyrrolidin-3-yl]methyl}amimo)-N-benzylbenzamide] | 5.29 | 0.101 to 10
Cc1c(F)cccc1NCC1(N)CCN(c2ncnc3[nH]cc(C)c23)C1 (stereo not shown) [Example 28, 3-{[(3-fluoro-2-methylphenyl)amino]methyl}-1-(5-methyl-7H-pyrrolo[2,3-d]pyrimidin-4-yl)pyrrolidin-3-amine] | 0.00952 | 0.00251 to 0.01
Cc1c[nH]c2ncnc(N3CCC(N)(CNc4ccccc4N4CCOCC4)C3)c12 (stereo not shown) [Example 29, 1-(5-methyl-7H-pyrrolo[2,3-d]pyrimidin-4-yl)-3-{[(2-morpholin-4-ylphenyl)amino]methyl}pyrrolidin-3-amine] | 0.0101 | 0.0101 to 0.1

From US20080051419A1, “AMINE DERIVATIVES USEFUL AS ANTICANCER AGENTS” (PFIZER INC., priority 2006, published 2008)
